Results: EP1160247A1, “6,5-Fused aromatic ring systems having enhanced phosphodiesterae IV inhibitory activity” (Euro-Celtique S.A., priority 2000, dated 2001)

Assays:
PDE V = target: T1, PDE V (Homo sapiens, UniProt O76074); assay: Type V PDE activity, hydrolysis of [3H]-cyclic GMP; assay type: biochemical; conditions: enzyme from platelets; cyclic GMP 0.2 uM; 2.5% dimethyl sulfoxide
T1 construct: from tissue; host or cells: platelets (supernatant, DEAE-Trisacryl M fraction)
Protocol: Briefly, 1-2 units of platelets are suspended in an equal volume of buffer A (20 mM Tris-HCl, pH 7.5, containing 2 mM magnesium acetate, 1 mM dithiothreitol, and 5 mM Na2EDTA) using a polytron. The proteinase inhibitor phenylmethylsulfonyl fluoride (PMSF) are also included in this buffer at a final concentration of 200 uM. This and all subsequent procedures are performed at 0-4°C. The homogenate is then centrifuged at […] for 60 minutes. The supernatant is then removed and filtered through four layers of gauze and applied to a DEAE-Trisacryl M column. The column is washed with several bed volumes of buffer B (20 mM Tris-HCl, pH 7.5, containing 2 mM magnesium acetate, 1 mM diothiothreitol, and […] PMSF) and eluted by two successive linear NaCl gradients (0.05-0.15 M, 300 ml total; 0.15-0.40 M, 200 ml total). Five ml fractions are collected and assayed for cyclic AMP and cyclic GMP PDE activity. Fractions that contain PDE V are pooled and dialyzed overnight against 4 L of buffer C (20 mM Tris-HCl, pH 7.5, containing 2 mM magnesium acetate and proteinase inhibitors). The dialyzed PDE V is then concentrated to 10% of the original volume, diluted to 50% with ethylene glycol monoethyl ether and stored at -20°C. PDE V can typically be retained for up to four weeks with little or no loss of activity.
The reference Type V PDE inhibitor zaprinast is evaluated with each assay.

PDE III = target: T2, PDE III (Homo sapiens, UniProt Q14432); assay: Type III PDE activity, hydrolysis of [3H]-cyclic AMP; assay type: biochemical; conditions: enzyme from human platelets; cyclic AMP 0.2 µM; 2.5% dimethyl sulfoxide
T2 construct: Fractions containing PDE III activity are pooled and dialyzed; from tissue; host or cells: human platelets (100,000 x g supernatant, DEAE-Trisacryl M fraction)
Protocol: The Type III PDE is isolated from human platelets using a procedure similar to that previously described by Weishaar, R.E.; Burrows, S.D.; Kobylarg, D.C., Quade, N.M.; Evans, D.B., Biochem. Pharmacol., 35:787, 1986. Briefly, 1-2 units of platelets are suspended in an equal volume of buffer (20 mM Tris-HCl, pH 7.5, containing 2 mM magnesium acetate, 1 mM dithiothreitol, and 5 mM Na2 EDTA). The protease inhibitor phenyl methyl-sulfonyl fluoride (PMSF) is also included in this buffer at a final concentration of 200 µM. The suspension is homogenized using a polytron and the homogenate centrifuged at 100,000 x g for 60 minutes. This and all subsequent procedures are performed at 0-4°C. The supernatant is then filtered through four layers of gauze and applied to a DEAE-Trisacryl M column, previously equilibrated with buffer B (20 mM Tris-HCl, pH 7.5, containing 1 mM magnesium acetate, 1 mM dithiothreitol and 200 µM PMSF). After application of the sample, the column is washed with several bed volumes of buffer B, after which the different forms of PDE are eluted from the column using two successive linear NaCl gradients (0.05-0.15 M, 300 ml total; 0.15-0.40 M, 200 ml total). Five milliliter fractions are collected and assayed for cyclic AMP and cyclic GMP PDE activity. Fractions containing PDE III activity are pooled and dialyzed overnight against 4 liters of buffer B. The dialyzed PDE III is then concentrated to 10% of the original volume, diluted to 50% with ethylene glycol monoethyl ether and stored at -20°C.
Enzyme activity is assessed by measuring the hydrolysis of [^3H]-cyclic AMP, as described by Thompson, W.J., Teraski, W.L., Epstein, P.N., Strada, S.J.: Adv. Cyclic Nucleotide Res. 10:69, 1979. The cyclic AMP concentration used in this assay is 0.2 µM, which approximates to the Km value. Protein concentration is adjusted to ensure that no more than 15% of the available substrate is hydrolyzed during the incubation period.
All test compounds are dissolved in dimethyl sulfoxide (final concentration of 2.5%).
The compounds are tested over concentration range: 0.1, 1, 10, 100 uM (n=1), and IC50 determinations are made using 5 appropriate concentrations (n=2).

T2 sequence (Q14432 whole entry): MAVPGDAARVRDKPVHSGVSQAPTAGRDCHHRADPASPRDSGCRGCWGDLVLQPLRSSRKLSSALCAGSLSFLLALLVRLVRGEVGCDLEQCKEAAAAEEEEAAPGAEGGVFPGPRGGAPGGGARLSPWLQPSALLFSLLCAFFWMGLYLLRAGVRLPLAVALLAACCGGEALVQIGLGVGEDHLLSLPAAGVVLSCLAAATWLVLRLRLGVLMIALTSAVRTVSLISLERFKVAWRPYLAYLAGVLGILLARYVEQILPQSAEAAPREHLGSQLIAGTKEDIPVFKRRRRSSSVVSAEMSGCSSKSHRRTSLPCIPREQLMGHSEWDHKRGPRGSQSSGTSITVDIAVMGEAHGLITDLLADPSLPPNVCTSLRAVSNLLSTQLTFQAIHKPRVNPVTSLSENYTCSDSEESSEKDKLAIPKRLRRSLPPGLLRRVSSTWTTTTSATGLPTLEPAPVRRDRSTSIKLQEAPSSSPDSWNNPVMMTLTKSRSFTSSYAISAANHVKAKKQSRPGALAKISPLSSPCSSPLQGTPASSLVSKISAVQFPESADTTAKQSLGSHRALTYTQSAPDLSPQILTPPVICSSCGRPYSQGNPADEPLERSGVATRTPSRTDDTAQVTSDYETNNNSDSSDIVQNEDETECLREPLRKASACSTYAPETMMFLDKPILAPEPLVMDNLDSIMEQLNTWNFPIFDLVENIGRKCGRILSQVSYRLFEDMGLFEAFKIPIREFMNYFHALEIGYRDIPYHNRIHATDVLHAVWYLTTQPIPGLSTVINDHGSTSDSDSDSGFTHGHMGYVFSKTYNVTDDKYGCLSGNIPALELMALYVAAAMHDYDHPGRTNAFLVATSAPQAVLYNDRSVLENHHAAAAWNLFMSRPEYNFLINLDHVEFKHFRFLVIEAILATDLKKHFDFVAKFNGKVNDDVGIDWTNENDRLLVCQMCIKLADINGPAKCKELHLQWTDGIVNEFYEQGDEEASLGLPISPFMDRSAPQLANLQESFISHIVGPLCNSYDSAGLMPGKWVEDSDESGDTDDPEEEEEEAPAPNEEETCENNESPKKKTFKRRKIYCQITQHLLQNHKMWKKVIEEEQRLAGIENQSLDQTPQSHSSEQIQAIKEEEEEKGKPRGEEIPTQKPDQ

| IC50 (PDE V) | IC50 (PDE III) | SMILES |
| --- | --- | --- |
| > 300 µM | > 300 µM | CC(C)(C)c1cc(Cc2nc3cc(Cl)cc(C#Cc4ccccn4)c3o2)cc(C(C)(C)C)c1O [Example 1, 5-chloro-2-(3,5-di-t-butyl-4-hydroxy-benzyl)-7-(2-(2-pyridyl)-ethynyl)-benzoxazole] |
| – | 620 µM | COc1ccc(C2CNC(=O)C2)cc1OC1CCCC1 (stereo not shown) [Rolipram, reference compound] |
| > 300 µM | > 300 µM | CC(C)(C)c1cc(Cc2nc3cc(Cl)cc(C#Cc4nccs4)c3o2)cc(C(C)(C)C)c1O [Example 3, 5-chloro-2-(3,5-di-t-butyl-4-hydroxy-benzyl)-7-(2-(2-thiazolyl)-ethynyl)-benzoxazole] |

| SMILES | IC50 (PDE V) | IC50 (PDE III) |
| --- | --- | --- |
| CC(C)(C)c1cc(Cc2nc3cccc(C#Cc4ccccn4)c3o2)cc(C(C)(C)C)c1O [Example 2, 2-(3,5-di-t-butyl-4-hydroxy-benzyl)-7-(2-(2-pyridyl)-ethynyl)-benzoxazole] | 35.1 µM | > 300 µM |
